Data reported in the NIST ThermoML archive (doi:10.1021/je060271a).
Numbers after ± are expanded uncertainties.

Conditions: 303.14 K, Liquid, Vibrating tube method

SMILES: CCCCCCC(=O)OCC(COC(=O)CCCCCC)(COC(=O)CCCCCC)COC(=O)CCCCCC [pentaerythritol tetraheptanoate]
- mass density (5095.7 kPa): 973.9 ± 1.2 kg/m3
- mass density (5116.9 kPa): 974.1 ± 1.2 kg/m3
- mass density (5138.3 kPa): 974 ± 1.2 kg/m3
- mass density (5164.1 kPa): 974 ± 1.2 kg/m3
- mass density (5185.5 kPa): 974.1 ± 1.2 kg/m3
- mass density (5207.3 kPa): 974 ± 1.2 kg/m3
- mass density (5229.7 kPa): 974.1 ± 1.2 kg/m3
- mass density (5256.1 kPa): 974.1 ± 1.2 kg/m3
- mass density (5277.9 kPa): 974 ± 1.2 kg/m3
- mass density (5304.9 kPa): 974 ± 1.2 kg/m3
- mass density (5328.1 kPa): 974.1 ± 1.2 kg/m3
- mass density (5350.7 kPa): 974.1 ± 1.2 kg/m3
- mass density (5374.3 kPa): 974.1 ± 1.2 kg/m3
- mass density (5402.1 kPa): 974.2 ± 1.2 kg/m3
- mass density (5425.6 kPa): 974.1 ± 1.2 kg/m3
- mass density (5450.7 kPa): 974.3 ± 1.2 kg/m3
- mass density (5475.8 kPa): 974.1 ± 1.2 kg/m3
- mass density (5504.5 kPa): 974.2 ± 1.2 kg/m3
- mass density (5528.9 kPa): 974.2 ± 1.2 kg/m3
- mass density (5554 kPa): 974.3 ± 1.2 kg/m3
- mass density (5583.9 kPa): 974.3 ± 1.2 kg/m3
- mass density (5609.1 kPa): 974.3 ± 1.2 kg/m3
- mass density (5634.4 kPa): 974.3 ± 1.2 kg/m3
- mass density (5665 kPa): 974.3 ± 1.2 kg/m3
- mass density (5690.9 kPa): 974.2 ± 1.2 kg/m3
- mass density (5717.2 kPa): 974.3 ± 1.2 kg/m3
- mass density (5749 kPa): 974.4 ± 1.2 kg/m3
- mass density (5776.5 kPa): 974.3 ± 1.2 kg/m3
- mass density (5804.6 kPa): 974.3 ± 1.2 kg/m3
- mass density (5832 kPa): 974.4 ± 1.2 kg/m3
- mass density (5860 kPa): 974.4 ± 1.2 kg/m3
- mass density (5888.5 kPa): 974.4 ± 1.2 kg/m3
- mass density (5922.7 kPa): 974.5 ± 1.2 kg/m3
- mass density (5951.6 kPa): 974.3 ± 1.2 kg/m3
- mass density (5980.6 kPa): 974.5 ± 1.2 kg/m3
- mass density (6015.7 kPa): 974.6 ± 1.2 kg/m3
- mass density (6045.3 kPa): 974.5 ± 1.2 kg/m3
- mass density (6075.7 kPa): 974.4 ± 1.2 kg/m3
- mass density (6106.1 kPa): 974.5 ± 1.2 kg/m3
- mass density (6142.6 kPa): 974.5 ± 1.2 kg/m3
- mass density (6174.1 kPa): 974.6 ± 1.2 kg/m3
- mass density (6207 kPa): 974.5 ± 1.2 kg/m3
- mass density (6238.7 kPa): 974.6 ± 1.2 kg/m3
- mass density (6270.8 kPa): 974.6 ± 1.2 kg/m3
- mass density (6309.5 kPa): 974.6 ± 1.2 kg/m3
- mass density (6342.4 kPa): 974.7 ± 1.2 kg/m3
- mass density (6375.9 kPa): 974.7 ± 1.2 kg/m3
- mass density (6416.1 kPa): 974.8 ± 1.2 kg/m3
- mass density (6447.8 kPa): 974.8 ± 1.2 kg/m3
- mass density (6476.3 kPa): 974.7 ± 1.2 kg/m3
- mass density (6510.3 kPa): 974.7 ± 1.2 kg/m3
- mass density (6539.5 kPa): 974.8 ± 1.2 kg/m3
- mass density (6568.7 kPa): 974.8 ± 1.2 kg/m3
- mass density (6598.1 kPa): 974.9 ± 1.2 kg/m3
- mass density (6633.7 kPa): 974.8 ± 1.2 kg/m3
- mass density (6664.4 kPa): 974.9 ± 1.2 kg/m3
- mass density (6695.2 kPa): 974.8 ± 1.2 kg/m3
- mass density (6725.8 kPa): 974.8 ± 1.2 kg/m3
- mass density (6762.4 kPa): 974.9 ± 1.2 kg/m3
- mass density (6793.3 kPa): 975 ± 1.2 kg/m3
- mass density (6825.6 kPa): 975 ± 1.2 kg/m3
- mass density (6857.2 kPa): 975 ± 1.2 kg/m3
- mass density (6895.7 kPa): 975 ± 1.2 kg/m3
- mass density (6928 kPa): 975 ± 1.2 kg/m3
- mass density (6961.5 kPa): 975 ± 1.2 kg/m3
- mass density (7001.6 kPa): 975.1 ± 1.2 kg/m3
- mass density (7035.6 kPa): 975.2 ± 1.2 kg/m3
- mass density (7070.4 kPa): 975.2 ± 1.2 kg/m3
- mass density (7104.5 kPa): 975.1 ± 1.2 kg/m3
- mass density (7139.2 kPa): 975.2 ± 1.2 kg/m3
- mass density (7181.2 kPa): 975.2 ± 1.2 kg/m3
- mass density (7216.8 kPa): 975.2 ± 1.2 kg/m3
- mass density (7253.9 kPa): 975.3 ± 1.2 kg/m3
- mass density (7291.4 kPa): 975.3 ± 1.2 kg/m3
- mass density (7336.6 kPa): 975.2 ± 1.2 kg/m3
- mass density (7375.1 kPa): 975.4 ± 1.2 kg/m3
- mass density (7414.5 kPa): 975.3 ± 1.2 kg/m3
- mass density (7451.6 kPa): 975.3 ± 1.2 kg/m3
- mass density (7469.5 kPa): 975.4 ± 1.2 kg/m3
- mass density (7494.9 kPa): 975.4 ± 1.2 kg/m3
- mass density (7522.2 kPa): 975.3 ± 1.2 kg/m3
- mass density (7549.5 kPa): 975.4 ± 1.2 kg/m3
- mass density (7582.3 kPa): 975.4 ± 1.2 kg/m3
- mass density (7609.7 kPa): 975.5 ± 1.2 kg/m3
- mass density (7637.3 kPa): 975.6 ± 1.2 kg/m3
- mass density (7671.1 kPa): 975.5 ± 1.2 kg/m3
- mass density (7698.9 kPa): 975.6 ± 1.2 kg/m3
- mass density (7728.1 kPa): 975.5 ± 1.2 kg/m3
- mass density (7757.4 kPa): 975.5 ± 1.2 kg/m3
- mass density (7793.5 kPa): 975.6 ± 1.2 kg/m3
- mass density (7823.2 kPa): 975.6 ± 1.2 kg/m3
- mass density (7858.2 kPa): 975.7 ± 1.2 kg/m3
- mass density (7882.7 kPa): 975.7 ± 1.2 kg/m3
- mass density (7904.3 kPa): 975.7 ± 1.2 kg/m3
- mass density (7925.9 kPa): 975.6 ± 1.2 kg/m3
- mass density (7946.9 kPa): 975.6 ± 1.2 kg/m3
- mass density (7972.8 kPa): 975.7 ± 1.2 kg/m3
- mass density (7994 kPa): 975.6 ± 1.2 kg/m3
- mass density (8016.3 kPa): 975.8 ± 1.2 kg/m3
- mass density (8042.7 kPa): 975.7 ± 1.2 kg/m3
- mass density (8064.3 kPa): 975.8 ± 1.2 kg/m3
- mass density (8087 kPa): 975.8 ± 1.2 kg/m3
- mass density (8113.3 kPa): 975.8 ± 1.2 kg/m3
- mass density (8135.7 kPa): 975.8 ± 1.2 kg/m3
- mass density (8158.3 kPa): 975.8 ± 1.2 kg/m3
- mass density (8181.6 kPa): 975.8 ± 1.2 kg/m3
- mass density (8209 kPa): 975.8 ± 1.2 kg/m3
- mass density (8232.1 kPa): 975.9 ± 1.2 kg/m3
- mass density (8255.4 kPa): 976 ± 1.2 kg/m3
- mass density (8283 kPa): 975.9 ± 1.2 kg/m3
- mass density (8305.8 kPa): 975.8 ± 1.2 kg/m3
- mass density (8328.7 kPa): 975.9 ± 1.2 kg/m3
